Experimental findings from patent US20240376099A1, “COMPOUNDS AND COMPOSITIONS AS INHIBITORS OF ENDOSOMAL TOLL-LIKE RECEPTORS” (Novartis AG, priority 2016, published 2024) are described below.

Some results are limits rather than exact numbers.

The target of the assay is T1, TLR8 (Homo sapiens, UniProt Q9NR97).
T1 sequence (Q9NR97 27-1041): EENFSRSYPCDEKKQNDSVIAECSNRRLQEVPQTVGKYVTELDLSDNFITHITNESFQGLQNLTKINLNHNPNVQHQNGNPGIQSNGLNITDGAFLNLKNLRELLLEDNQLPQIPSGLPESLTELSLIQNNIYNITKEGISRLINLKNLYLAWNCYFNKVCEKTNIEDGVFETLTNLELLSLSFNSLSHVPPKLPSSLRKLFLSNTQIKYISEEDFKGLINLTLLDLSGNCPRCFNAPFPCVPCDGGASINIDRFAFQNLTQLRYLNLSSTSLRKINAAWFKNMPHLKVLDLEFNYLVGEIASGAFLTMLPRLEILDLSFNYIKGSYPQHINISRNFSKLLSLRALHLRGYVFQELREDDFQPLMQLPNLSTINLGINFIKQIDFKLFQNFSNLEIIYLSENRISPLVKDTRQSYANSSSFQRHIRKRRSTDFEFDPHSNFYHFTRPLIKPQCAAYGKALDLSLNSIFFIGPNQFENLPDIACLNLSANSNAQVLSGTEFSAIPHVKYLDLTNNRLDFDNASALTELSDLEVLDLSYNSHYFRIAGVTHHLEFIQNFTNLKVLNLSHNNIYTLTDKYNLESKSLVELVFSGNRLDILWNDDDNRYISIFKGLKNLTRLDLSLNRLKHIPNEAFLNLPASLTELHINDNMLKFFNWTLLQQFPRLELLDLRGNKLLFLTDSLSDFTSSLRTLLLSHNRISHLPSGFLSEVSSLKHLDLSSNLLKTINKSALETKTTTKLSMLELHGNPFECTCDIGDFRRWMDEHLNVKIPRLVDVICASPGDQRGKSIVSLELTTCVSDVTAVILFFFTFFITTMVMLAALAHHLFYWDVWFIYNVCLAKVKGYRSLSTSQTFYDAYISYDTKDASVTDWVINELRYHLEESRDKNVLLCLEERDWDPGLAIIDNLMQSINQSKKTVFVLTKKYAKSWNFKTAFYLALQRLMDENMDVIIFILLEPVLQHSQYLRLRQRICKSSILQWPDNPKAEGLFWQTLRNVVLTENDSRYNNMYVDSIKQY
The assay is described as follows: huPBMC TLR8 Antagonist IL-6 TR-FRET Assay. In kind it is cell-based. The settings on record: human PBMCs stimulated with ssRNA40 1 μg/ml (DOTAP), 14-16 hrs; IL-6 TR-FRET read-out. More on the design: Fresh blood was collected from normal human donors; endogenous in cells; host or cells: human PBMCs from fresh donor blood. Summed up:
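Human PBMCs from fresh donor blood (150,000 cells/well) stimulated 14–16 h at 37 °C with DOTAP-complexed ssRNA40 (final 1 μg/ml for TLR8, 10 μg/mL for TLR7) or ODN2216 (final 0.3 μM, TLR9), 0.25% DMSO, ten-point 1/3 compound dilutions. Supernatant IL-6 read by HTRF (TLR8); IFNα by IFNα2b AlphaLISA (TLR7/TLR9).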
Background: TR-FRET usually uses a lanthanide donor and a delayed reading to cut background.

For `Cc1cc(N2CCc3c(c(C)nn3CC34CCC(N)(CC3)CC4)C2)c2ccncc2n1` [Compound No. 3, 4-((3-methyl-5-(2-methyl-1,7-naphthyridin-4-yl)-4,5,6,7-tetrahydro-1H-pyrazolo[4,3-c]pyridin-1-yl)methyl)bicyclo[2.2.2]octan-1-amine], the IC50 (usually the point on the concentration scale where inhibition reaches its midpoint) stood at 55 nM.
Then `Cc1cc(N2CCc3c(c(C)nn3CC34CCC(NC5COC5)(CC3)CC4)C2)c2cnn(C)c2n1` [Compound No. 6, N-(4-((5-(1,6-dimethyl-1H-pyrazolo[3,4-b]pyridin-4-yl)-3-methyl-4,5,6,7-tetrahydro-1H-pyrazolo[4,3-c]pyridin-1-yl)methyl)bicyclo[2.2.2]octan-1-yl)oxetan-3-amine], with 135 nM; and `Cc1cc(N2CCc3c(c(C)nn3CC34CCC(NC(=O)[C@@H]5COCCN5)(CC3)CC4)C2)c2cnn(C)c2n1` [Compound No. 8, (S)—N-(4-((5-(1,6-dimethyl-1H-pyrazolo[3,4-b]pyridin-4-yl)-3-methyl-4,5,6,7-tetrahydro-1H-pyrazolo[4,3-c]pyridin-1-yl)methyl)bicyclo[2.2.2]octan-1-yl)morpholine-3-carboxamide], with 166 nM; and `Cc1cc(N2CCc3c(c(C)nn3CC34CCC(NC(=O)[C@H]5COCCN5)(CC3)CC4)C2)c2cnn(C)c2n1` [Compound No. 9, (R)—N-(4-((5-(1,6-dimethyl-1H-pyrazolo[3,4-b]pyridin-4-yl)-3-methyl-4,5,6,7-tetrahydro-1H-pyrazolo[4,3-c]pyridin-1-yl)methyl)bicyclo[2.2.2]octan-1-yl)morpholine-3-carboxamide], with 201 nM.
Then `Cc1nc(N2CCc3c(c(C)nn3CC34CCC(N5CC6(COC6)C5)(CC3)CC4)C2)c2c(n1)c(C)nn2C` [Compound No. 10, 6-(4-((3-methyl-5-(1,3,5-trimethyl-1H-pyrazolo[4,3-d]pyrimidin-7-yl)-4,5,6,7-tetrahydro-1H-pyrazolo[4,3-c]pyridin-1-yl)methyl)bicyclo[2.2.2]octan-1-yl)-2-oxa-6-azaspiro[3.3]heptane], with 48 nM.
Consider `Cc1nc(N2CCc3c(c(C)nn3CC34CCC(N)(CC3)CC4)C2)c2c(n1)c(C)nn2C` [Compound No. 26, 4-((3-methyl-5-(1,3,5-trimethyl-1H-pyrazolo[4,3-d]pyrimidin-7-yl)-4,5,6,7-tetrahydro-1H-pyrazolo[4,3-c]pyridin-1-yl)methyl)bicyclo[2.2.2]octan-1-amine], for which the IC50 worked out at 289 nM.
On to `Cc1cc(N2CCc3c(c(C)nn3CC34CCC(N(C)C)(CC3)CC4)C2)c2cnn(C)c2n1` [Compound No. 43, 4-((5-(1,6-dimethyl-1H-pyrazolo[3,4-b]pyridin-4-yl)-3-methyl-4,5,6,7-tetrahydro-1H-pyrazolo[4,3-c]pyridin-1-yl)methyl)-N,N-dimethylbicyclo[2.2.2]octan-1-amine], for which the IC50 was 51 nM.
Regarding `Cc1cc(N2CCc3c(c(C)nn3CC34CCC(N5CCN(C)C(=O)C5)(CC3)CC4)C2)c2cnn(C)c2n1` [Compound No. 104, 4-(4-((5-(1,6-dimethyl-1H-pyrazolo[3,4-b]pyridin-4-yl)-3-methyl-4,5,6,7-tetrahydro-1H-pyrazolo[4,3-c]pyridin-1-yl)methyl)bicyclo[2.2.2]octan-1-yl)-1-methylpiperazin-2-one], the IC50 came out at 389 nM.
For the compound `Cc1cc(N2CCc3c(c(C)nn3CC34CCC(N5CCN(C)CC5=O)(CC3)CC4)C2)c2cnn(C)c2n1` [Compound No. 108, 1-(4-((5-(1,6-dimethyl-1H-pyrazolo[3,4-b]pyridin-4-yl)-3-methyl-4,5,6,7-tetrahydro-1H-pyrazolo[4,3-c]pyridin-1-yl)methyl)bicyclo[2.2.2]octan-1-yl)-4-methylpiperazin-2-one], the IC50 came to 44 nM.
Regarding `Cc1cc(N2CCc3c(c(C)nn3CC34CCC(n5ccnc5)(CC3)CC4)C2)c2cnn(C)c2n1` [Compound No. 119, 1-((4-(1H-imidazol-1-yl)bicyclo[2.2.2]octan-1-yl)methyl)-5-(1,6-dimethyl-1H-pyrazolo[3,4-b]pyridin-4-yl)-3-methyl-4,5,6,7-tetrahydro-1H-pyrazolo[4,3-c]pyridine], the IC50 was found to be 1180 nM.
To `Cc1cc(N2CCc3c(c(C)nn3CC34CCC(NC(=O)CN5CC(F)C5)(CC3)CC4)C2)c2cnn(C)c2n1` [Compound No. 133, N-(4-((5-(1,6-dimethyl-1H-pyrazolo[3,4-b]pyridin-4-yl)-3-methyl-4,5,6,7-tetrahydro-1H-pyrazolo[4,3-c]pyridin-1-yl)methyl)bicyclo[2.2.2]octan-1-yl)-2-(3-fluoroazetidin-1-yl)acetamide] belongs 806 nM; to `Cc1cc(N2CCc3c(c(C)nn3CC34CCC(NC(=O)CO)(CC3)CC4)C2)c2cnn(C)c2n1` [Compound No. 135, N-(4-((5-(1,6-dimethyl-1H-pyrazolo[3,4-b]pyridin-4-yl)-3-methyl-4,5,6,7-tetrahydro-1H-pyrazolo[4,3-c]pyridin-1-yl)methyl)bicyclo[2.2.2]octan-1-yl)-2-hydroxyacetamide], 8440 nM; to `Cc1cc(N2CCc3c(c(C)nn3CC34CCC(NC(=O)CN5CC(O)C5)(CC3)CC4)C2)c2cnn(C)c2n1` [Compound No. 136, N-(4-((5-(1,6-dimethyl-1H-pyrazolo[3,4-b]pyridin-4-yl)-3-methyl-4,5,6,7-tetrahydro-1H-pyrazolo[4,3-c]pyridin-1-yl)methyl)bicyclo[2.2.2]octan-1-yl)-2-(3-hydroxyazetidin-1-yl)acetamide], 178 nM.
As to `[2H]C([2H])([2H])n1ncc2c(N3CCc4c(c(C)nn4CC45CCC(N)(CC4)CC5)C3)cc(C)nc21` [Compound No. 140, 4-((3-methyl-5-(6-methyl-1-(methyl-d3)-1H-pyrazolo[3,4-b]pyridin-4-yl)-4,5,6,7-tetrahydro-1H-pyrazolo[4,3-c]pyridin-1-yl)methyl)bicyclo[2.2.2]octan-1-amine], the IC50 worked out at 331 nM.
To `Cc1cc(N2CCc3c(c(C)nn3CC34CCC(NC(=O)OC(C)(C)C)(CC3)CC4)C2)c2ccncc2n1` [Compound No. 147, tert-butyl (4-((3-methyl-5-(2-methyl-1,7-naphthyridin-4-yl)-4,5,6,7-tetrahydro-1H-pyrazolo[4,3-c]pyridin-1-yl)methyl)bicyclo[2.2.2]octan-1-yl)carbamate] belongs greater than 10000 nM.
Take `Cc1nn(CC23CCC(N)(CC2)CC3)c2c1CN(c1nc(N)nc3c1cnn3C)CC2` [compound 13, 4-(1-((4-aminobicyclo[2.2.2]octan-1-yl)methyl)-3-methyl-6,7-dihydro-1H-pyrazolo[4,3-c]pyridin-5(4H)-yl)-1-methyl-1H-pyrazolo[3,4-d]pyrimidin-6-amine]: the 50% inhibitory concentration (IC50) was found to be 1350 nM.
Then `Cc1nn(CC23CCC(N)(CC2)CC3)c2c1CN(c1nc(Cl)nc3cnn(C)c13)CC2` [compound 15, 4-((5-(5-chloro-1-methyl-1H-pyrazolo[4,3-d]pyrimidin-7-yl)-3-mehtyl-4,5,6,7-tetrahydro-1H-pyrazolo[4,3-c]pyridin-1-yl)methyl)bicyclo[2.2.2]octan-1-amine], with 203 nM; and `Cc1nc(N2CCc3c(c(C)nn3CC34CCC(N5CCCC5)(CC3)CC4)C2)c2cnn(C)c2n1` [compound 16, 1,6-dimethyl-4-(3-methyl-1-((4-(pyrrolidin-1-yl)bicyclo[2.2.2]octan-1-yl)methyl)-6,7-dihydro-1H-pyrazolo[4,3-c]pyridin-5(4H)-yl)-1H-pyrazolo[3,4-d]pyrimidine], with 443 nM.
